This passage reports activity coefficient results from the NIST ThermoML archive (doi:10.1021/je300692s).

This data set can be described thus: activity coefficient (dimensionless); of the first substance listed, at infinite dilution; xn = mol fraction of the nth substance listed. The following applies: 101 kPa, Liquid, Chromatography, x1 = 0.

SMILES strings stand for the structures. Numbers after ± are expanded uncertainties.

In the case of `C=CCCCC` [hex-1-ene] + CCCCCCCCCC[N+]1(C)CCCC1.O=S(=O)([N-]S(=O)(=O)C(F)(F)F)C(F)(F)F, the activity coefficient by setting is: (322.6 K) 2.68 ± 0.28; (332.5 K) 2.62 ± 0.28; (342.8 K) 2.57 ± 0.27.
As for `C=CCCCC` [hex-1-ene] + CCCCCCCC[N+]1(C)CCCC1.O=S(=O)([N-]S(=O)(=O)C(F)(F)F)C(F)(F)F, the activity coefficient reads like this: (323 K) 3.17 ± 0.33; (333 K) 3.02 ± 0.32; (343.1 K) 2.58 ± 0.27.
For `C=CCCCC` [hex-1-ene] + CCCCCC[N+]1(C)CCCC1.O=S(=O)([N-]S(=O)(=O)C(F)(F)F)C(F)(F)F, the activity coefficient (322.9 K) was 4.56 ± 0.48, the activity coefficient (333 K) amounted to 4.63 ± 0.49 and the activity coefficient (343.1 K) came out at 4.44 ± 0.47.
As to `CCCCCC` [hexane] + CCCCCCCCCC[N+]1(C)CCCC1.O=S(=O)([N-]S(=O)(=O)C(F)(F)F)C(F)(F)F, the activity coefficient amounted to 3.97 ± 0.42 (322.6 K), 3.78 ± 0.4 (332.5 K) and 3.68 ± 0.39 (342.8 K).
Take `CCCCCC` [hexane] + CCCCCCCC[N+]1(C)CCCC1.O=S(=O)([N-]S(=O)(=O)C(F)(F)F)C(F)(F)F: the activity coefficient runs as follows: (323 K) 5.01 ± 0.53; (333 K) 4.8 ± 0.5; (343.1 K) 4.05 ± 0.43.
On to `CCCCCC` [hexane] + CCCCCC[N+]1(C)CCCC1.O=S(=O)([N-]S(=O)(=O)C(F)(F)F)C(F)(F)F, for which the activity coefficient by setting is: (322.9 K) 7.74 ± 0.81; (333 K) 7.38 ± 0.78; (343.1 K) 7.11 ± 0.75.
Turning to `CO` [methanol] + CCCCCCCCCC[N+]1(C)CCCC1.O=S(=O)([N-]S(=O)(=O)C(F)(F)F)C(F)(F)F, the activity coefficient is 1.61 ± 0.17 (322.6 K), 1.32 ± 0.14 (332.5 K) and 1.36 ± 0.14 (342.8 K).
Turning to `CO` [methanol] + CCCCCCCC[N+]1(C)CCCC1.O=S(=O)([N-]S(=O)(=O)C(F)(F)F)C(F)(F)F, the activity coefficient reads like this: (323 K) 0.97 ± 0.1; (333 K) 1.09 ± 0.11; (343.1 K) 0.71 ± 0.07.
`CO` [methanol] + CCCCCC[N+]1(C)CCCC1.O=S(=O)([N-]S(=O)(=O)C(F)(F)F)C(F)(F)F: the activity coefficient (322.9 K) is 0.94 ± 0.1, the activity coefficient (333 K) amounted to 1.77 ± 0.18 and the activity coefficient (343.1 K) was found to be 0.95 ± 0.1.
For `CC1CCCCC1` [methylcyclohexane] + CCCCCCCCCC[N+]1(C)CCCC1.O=S(=O)([N-]S(=O)(=O)C(F)(F)F)C(F)(F)F, the activity coefficient (322.6 K) was determined as 3.38 ± 0.36, the activity coefficient (332.5 K) came to 3.28 ± 0.34 and the activity coefficient (342.8 K) amounted to 3.15 ± 0.33.
Turning to `CC1CCCCC1` [methylcyclohexane] + CCCCCCCC[N+]1(C)CCCC1.O=S(=O)([N-]S(=O)(=O)C(F)(F)F)C(F)(F)F, the activity coefficient is, setting by setting: (323 K) 4.22 ± 0.44; (333 K) 4.04 ± 0.42; (343.1 K) 3.9 ± 0.41.
`CC1CCCCC1` [methylcyclohexane] + CCCCCC[N+]1(C)CCCC1.O=S(=O)([N-]S(=O)(=O)C(F)(F)F)C(F)(F)F: the activity coefficient by setting is: (322.9 K) 6.57 ± 0.69; (333 K) 6.07 ± 0.64; (343.1 K) 6.03 ± 0.63.
As to `CC1CCCC1` [methylcyclopentane] + CCCCCCCCCC[N+]1(C)CCCC1.O=S(=O)([N-]S(=O)(=O)C(F)(F)F)C(F)(F)F, the activity coefficient is, setting by setting: (322.6 K) 2.9 ± 0.3; (332.5 K) 2.76 ± 0.29; (342.8 K) 2.66 ± 0.28.
Consider `CC1CCCC1` [methylcyclopentane] + CCCCCCCC[N+]1(C)CCCC1.O=S(=O)([N-]S(=O)(=O)C(F)(F)F)C(F)(F)F, for which the activity coefficient turned out to be 3.13 ± 0.33 (323 K), 3.36 ± 0.35 (333 K) and 2.84 ± 0.3 (343.1 K).
On to `CC1CCCC1` [methylcyclopentane] + CCCCCC[N+]1(C)CCCC1.O=S(=O)([N-]S(=O)(=O)C(F)(F)F)C(F)(F)F, for which the activity coefficient was found to be 4.9 ± 0.51 (322.9 K), 4.52 ± 0.47 (333 K) and 4.76 ± 0.5 (343.1 K).
In the case of `C[N+](=O)[O-]` [nitromethane] + CCCCCCCCCC[N+]1(C)CCCC1.O=S(=O)([N-]S(=O)(=O)C(F)(F)F)C(F)(F)F, the activity coefficient is, setting by setting: (322.6 K) 0.63 ± 0.07; (332.5 K) 0.62 ± 0.07; (342.8 K) 0.6 ± 0.06.
With `C[N+](=O)[O-]` [nitromethane] + CCCCCCCC[N+]1(C)CCCC1.O=S(=O)([N-]S(=O)(=O)C(F)(F)F)C(F)(F)F, the activity coefficient by setting is: (323 K) 0.54 ± 0.06; (333 K) 0.51 ± 0.06; (343.1 K) 0.48 ± 0.05.
Regarding `C[N+](=O)[O-]` [nitromethane] + CCCCCC[N+]1(C)CCCC1.O=S(=O)([N-]S(=O)(=O)C(F)(F)F)C(F)(F)F, the activity coefficient runs as follows: (322.9 K) 0.57 ± 0.06; (333 K) 0.57 ± 0.06; (343.1 K) 0.56 ± 0.06.
Regarding `CCCCCCCCC` [nonane] + CCCCCCCCCC[N+]1(C)CCCC1.O=S(=O)([N-]S(=O)(=O)C(F)(F)F)C(F)(F)F, the activity coefficient runs as follows: (322.6 K) 8.32 ± 0.87; (332.5 K) 8.01 ± 0.84; (342.8 K) 7.65 ± 0.8.
In the case of `CCCCCCCCC` [nonane] + CCCCCCCC[N+]1(C)CCCC1.O=S(=O)([N-]S(=O)(=O)C(F)(F)F)C(F)(F)F, the activity coefficient is, setting by setting: (323 K) 11.3 ± 0.67; (333 K) 10.7 ± 0.64; (343.1 K) 9.14 ± 0.55.
Regarding `CCCCCCCCC` [nonane] + CCCCCC[N+]1(C)CCCC1.O=S(=O)([N-]S(=O)(=O)C(F)(F)F)C(F)(F)F, the activity coefficient runs as follows: (322.9 K) 21.1 ± 2.2; (333 K) 18.2 ± 1.9; (343.1 K) 18.5 ± 1.9.
For the compound `CCCCCCCC` [octane] + CCCCCCCCCC[N+]1(C)CCCC1.O=S(=O)([N-]S(=O)(=O)C(F)(F)F)C(F)(F)F, the activity coefficient came out at 6.13 ± 0.64 (322.6 K), 5.92 ± 0.62 (332.5 K) and 5.76 ± 0.61 (342.8 K).
Consider `CCCCCCCC` [octane] + CCCCCCCC[N+]1(C)CCCC1.O=S(=O)([N-]S(=O)(=O)C(F)(F)F)C(F)(F)F, for which the activity coefficient by setting is: (323 K) 8.1 ± 0.85; (333 K) 7.8 ± 0.82; (343.1 K) 6.54 ± 0.69.
Take `CCCCCCCC` [octane] + CCCCCC[N+]1(C)CCCC1.O=S(=O)([N-]S(=O)(=O)C(F)(F)F)C(F)(F)F: the activity coefficient is, setting by setting: (322.9 K) 14.2 ± 1.5; (333 K) 13.4 ± 1.4; (343.1 K) 12.9 ± 1.4.
For the compound `CCCC(C)=O` [pentan-2-one] + CCCCCCCCCC[N+]1(C)CCCC1.O=S(=O)([N-]S(=O)(=O)C(F)(F)F)C(F)(F)F, the activity coefficient is 0.52 ± 0.06 (322.6 K), 0.53 ± 0.06 (332.5 K) and 0.54 ± 0.06 (342.8 K).
On to `CCCC(C)=O` [pentan-2-one] + CCCCCCCC[N+]1(C)CCCC1.O=S(=O)([N-]S(=O)(=O)C(F)(F)F)C(F)(F)F, for which the activity coefficient by setting is: (323 K) 0.49 ± 0.05; (333 K) 0.51 ± 0.06; (343.1 K) 0.48 ± 0.05.
For `CCCC(C)=O` [pentan-2-one] + CCCCCC[N+]1(C)CCCC1.O=S(=O)([N-]S(=O)(=O)C(F)(F)F)C(F)(F)F, the activity coefficient (322.9 K) turned out to be 0.59 ± 0.06, the activity coefficient (333 K) turned out to be 0.65 ± 0.07 and the activity coefficient (343.1 K) was found to be 0.66 ± 0.07.
For `CCC(=O)CC` [pentan-3-one] + CCCCCCCCCC[N+]1(C)CCCC1.O=S(=O)([N-]S(=O)(=O)C(F)(F)F)C(F)(F)F, the activity coefficient reads like this: (322.6 K) 0.47 ± 0.05; (332.5 K) 0.48 ± 0.05; (342.8 K) 0.5 ± 0.06.
Turning to `CCC(=O)CC` [pentan-3-one] + CCCCCCCC[N+]1(C)CCCC1.O=S(=O)([N-]S(=O)(=O)C(F)(F)F)C(F)(F)F, the activity coefficient runs as follows: (323 K) 0.45 ± 0.05; (333 K) 0.47 ± 0.05; (343.1 K) 0.44 ± 0.05.
Consider `CCC(=O)CC` [pentan-3-one] + CCCCCC[N+]1(C)CCCC1.O=S(=O)([N-]S(=O)(=O)C(F)(F)F)C(F)(F)F, for which the activity coefficient runs as follows: (322.9 K) 0.47 ± 0.05; (333 K) 0.6 ± 0.06; (343.1 K) 0.62 ± 0.07.
As to `CCCO` [propan-1-ol] + CCCCCCCCCC[N+]1(C)CCCC1.O=S(=O)([N-]S(=O)(=O)C(F)(F)F)C(F)(F)F, the activity coefficient came out at 1.62 ± 0.17 (322.6 K), 1.47 ± 0.15 (332.5 K) and 1.32 ± 0.14 (342.8 K).
As to `CCCO` [propan-1-ol] + CCCCCCCC[N+]1(C)CCCC1.O=S(=O)([N-]S(=O)(=O)C(F)(F)F)C(F)(F)F, the activity coefficient is, setting by setting: (323 K) 1.49 ± 0.15; (333 K) 1.29 ± 0.13; (343.1 K) 1.14 ± 0.12.
As to `CCCO` [propan-1-ol] + CCCCCC[N+]1(C)CCCC1.O=S(=O)([N-]S(=O)(=O)C(F)(F)F)C(F)(F)F, the activity coefficient (322.9 K) was 1.72 ± 0.18, the activity coefficient (333 K) was 1.64 ± 0.17 and the activity coefficient (343.1 K) was 1.49 ± 0.15.
On to `CC(C)O` [propan-2-ol] + CCCCCCCCCC[N+]1(C)CCCC1.O=S(=O)([N-]S(=O)(=O)C(F)(F)F)C(F)(F)F, for which the activity coefficient (322.6 K) amounted to 1.52 ± 0.16, the activity coefficient (332.5 K) came to 1.38 ± 0.14 and the activity coefficient (342.8 K) came out at 1.25 ± 0.13.
As for `CC(C)O` [propan-2-ol] + CCCCCCCC[N+]1(C)CCCC1.O=S(=O)([N-]S(=O)(=O)C(F)(F)F)C(F)(F)F, the activity coefficient (323 K) is 1.4 ± 0.14, the activity coefficient (333 K) is 1.27 ± 0.13 and the activity coefficient (343.1 K) came to 1.06 ± 0.11.
Regarding `CC(C)O` [propan-2-ol] + CCCCCC[N+]1(C)CCCC1.O=S(=O)([N-]S(=O)(=O)C(F)(F)F)C(F)(F)F, the activity coefficient by setting is: (333 K) 1.53 ± 0.16; (343.1 K) 1.4 ± 0.14.
For the compound `c1ccncc1` [pyridine] + CCCCCCCCCC[N+]1(C)CCCC1.O=S(=O)([N-]S(=O)(=O)C(F)(F)F)C(F)(F)F, the activity coefficient (322.6 K) came out at 0.47 ± 0.05, the activity coefficient (332.5 K) was 0.47 ± 0.05 and the activity coefficient (342.8 K) was 0.47 ± 0.05.
Consider `c1ccncc1` [pyridine] + CCCCCCCC[N+]1(C)CCCC1.O=S(=O)([N-]S(=O)(=O)C(F)(F)F)C(F)(F)F, for which the activity coefficient reads like this: (323 K) 0.42 ± 0.05; (333 K) 0.39 ± 0.05; (343.1 K) 0.41 ± 0.05.
